Assay results taken from the NIST ThermoML archive (doi:10.1016/j.fluid.2017.06.019).
± gives the expanded uncertainty stated by the source.

Details: Coaxial cylinder method

CCC [propane]
thermal conductivity [W/m/K]
Details	Gas	Liquid
364.65 K, 4080 kPa	–	0.06377 ± 0.0042
364.65 K, 4100 kPa	–	0.06381 ± 0.0042
364.65 K, 4120 kPa	–	0.06385 ± 0.0042
364.65 K, 4140 kPa	–	0.06391 ± 0.0042
364.65 K, 4160 kPa	–	0.06398 ± 0.0042
364.65 K, 4180 kPa	–	0.06404 ± 0.0042
364.65 K, 4200 kPa	–	0.06412 ± 0.0042
364.65 K, 4220 kPa	–	0.06418 ± 0.0042
364.65 K, 4240 kPa	–	0.06424 ± 0.0042
364.65 K, 4260 kPa	–	0.06432 ± 0.0042
364.65 K, 4280 kPa	–	0.06439 ± 0.0042
364.65 K, 4300 kPa	–	0.06445 ± 0.0042
364.65 K, 4349 kPa	–	0.06465 ± 0.0042
364.65 K, 4364 kPa	–	0.06469 ± 0.0042
364.65 K, 4372 kPa	–	0.06473 ± 0.0042
364.65 K, 4380 kPa	–	0.06475 ± 0.0042
364.65 K, 4388 kPa	–	0.06475 ± 0.0042
365.72 K, 3306 kPa	0.03402 ± 0.0021	0.03402 ± 0.0026
365.72 K, 3882 kPa	0.04279 ± 0.016	–
365.72 K, 3883 kPa	0.04289 ± 0.0095	–
365.72 K, 3884 kPa	0.04575 ± 0.0097	–
365.72 K, 3885 kPa	0.04607 ± 0.0097	–
365.72 K, 3890 kPa	0.05157 ± 0.0073	–
365.72 K, 3891 kPa	0.05307 ± 0.0068	–
365.72 K, 3892 kPa	0.05526 ± 0.0064	–
365.72 K, 3893 kPa	0.0573 ± 0.0065	–
365.72 K, 3894 kPa	0.05933 ± 0.0062	–
365.72 K, 3895 kPa	0.06131 ± 0.0059	–
365.72 K, 3896 kPa	0.06342 ± 0.0073	–
365.72 K, 3897 kPa	0.06568 ± 0.0078	–
365.72 K, 3898 kPa	0.06813 ± 0.0077	–
365.72 K, 3899 kPa	0.07049 ± 0.0075	–
365.72 K, 3900 kPa	0.07276 ± 0.0072	–
365.72 K, 3901 kPa	0.07497 ± 0.0069	–
365.72 K, 3902 kPa	0.07801 ± 0.0066	–
365.72 K, 3903 kPa	0.0811 ± 0.0064	–
365.72 K, 3904 kPa	0.08423 ± 0.0063	–
365.72 K, 3905 kPa	0.08726 ± 0.0062	–
365.72 K, 3906 kPa	0.09038 ± 0.0062	–
365.72 K, 3907 kPa	0.09365 ± 0.0062	–
365.72 K, 3908 kPa	0.09697 ± 0.0063	–
365.72 K, 3909 kPa	0.1001 ± 0.0064	–
365.72 K, 3910 kPa	0.1033 ± 0.0065	–
365.72 K, 3911 kPa	0.1068 ± 0.0067	–
365.72 K, 3912 kPa	0.1099 ± 0.0069	–
365.72 K, 3913 kPa	0.1132 ± 0.007	–
365.72 K, 3914 kPa	0.1164 ± 0.0072	–
365.72 K, 3915 kPa	0.1201 ± 0.0075	–
365.72 K, 3916 kPa	0.1234 ± 0.0077	–
365.72 K, 3917 kPa	0.1273 ± 0.0079	–
365.72 K, 3918 kPa	0.1307 ± 0.0099	–
365.72 K, 3919 kPa	0.1341 ± 0.01	–
365.72 K, 3920 kPa	0.1379 ± 0.01	–
365.72 K, 3921 kPa	0.1413 ± 0.01	–
365.72 K, 3922 kPa	0.1454 ± 0.011	–
365.72 K, 3923 kPa	0.149 ± 0.011	–
365.72 K, 3924 kPa	0.1527 ± 0.011	–
365.72 K, 3925 kPa	0.1565 ± 0.011	–
365.72 K, 3926 kPa	0.1605 ± 0.012	–
365.72 K, 3927 kPa	0.1644 ± 0.012	–
365.72 K, 3928 kPa	0.1684 ± 0.012	–
365.72 K, 3929 kPa	0.1724 ± 0.012	–
365.72 K, 3930 kPa	0.1763 ± 0.013	–
365.72 K, 3931 kPa	0.1804 ± 0.013	–
365.72 K, 3932 kPa	0.1846 ± 0.013	–
365.72 K, 3933 kPa	0.1886 ± 0.013	–
365.72 K, 3934 kPa	0.1932 ± 0.014	–
365.72 K, 3935 kPa	0.1972 ± 0.014	–
365.72 K, 3936 kPa	0.2015 ± 0.014	–
365.72 K, 3937 kPa	0.2059 ± 0.015	–
365.72 K, 3938 kPa	0.2104 ± 0.015	–
365.72 K, 3939 kPa	0.2148 ± 0.015	–
365.72 K, 3940 kPa	0.2193 ± 0.016	–
365.72 K, 3941 kPa	0.2241 ± 0.016	–
365.72 K, 3942 kPa	0.229 ± 0.016	–
365.72 K, 3943 kPa	0.2336 ± 0.016	–
365.72 K, 3944 kPa	0.2401 ± 0.017	–
365.72 K, 3945 kPa	–	0.2612 ± 0.019
365.72 K, 3946 kPa	–	0.2502 ± 0.019
365.72 K, 3947 kPa	–	0.2373 ± 0.018
365.72 K, 3948 kPa	–	0.224 ± 0.016
365.72 K, 3949 kPa	–	0.2125 ± 0.016
365.72 K, 3950 kPa	–	0.2005 ± 0.015
365.72 K, 3951 kPa	–	0.1903 ± 0.014
365.72 K, 3952 kPa	–	0.1805 ± 0.013
365.72 K, 3953 kPa	–	0.1711 ± 0.012
365.72 K, 3954 kPa	–	0.1622 ± 0.012
365.72 K, 3955 kPa	–	0.1544 ± 0.011
365.72 K, 3956 kPa	–	0.1467 ± 0.011
365.72 K, 3957 kPa	–	0.1394 ± 0.012
365.72 K, 3958 kPa	–	0.1335 ± 0.011
365.72 K, 3959 kPa	–	0.1273 ± 0.011
365.72 K, 3960 kPa	–	0.1217 ± 0.011
365.72 K, 3961 kPa	–	0.1164 ± 0.01
365.72 K, 3962 kPa	–	0.1139 ± 0.01
365.72 K, 3963 kPa	–	0.1116 ± 0.0098
365.72 K, 3964 kPa	–	0.1094 ± 0.0098
365.72 K, 3965 kPa	–	0.1072 ± 0.0097
365.72 K, 3966 kPa	–	0.1052 ± 0.0097
365.72 K, 3967 kPa	–	0.1032 ± 0.0097
365.72 K, 3968 kPa	–	0.1013 ± 0.0093
365.72 K, 3969 kPa	–	0.09939 ± 0.0091
365.72 K, 3970 kPa	–	0.09778 ± 0.0091
365.72 K, 3971 kPa	–	0.09605 ± 0.0091
365.72 K, 3972 kPa	–	0.09456 ± 0.009
365.72 K, 3973 kPa	–	0.09289 ± 0.0087
365.72 K, 3974 kPa	–	0.09145 ± 0.0087
365.72 K, 3975 kPa	–	0.09005 ± 0.0087
365.72 K, 3976 kPa	–	0.08869 ± 0.0087
365.72 K, 3977 kPa	–	0.08737 ± 0.0086
